# From US4912092A, “Methods for increasing extracellular adenosine and for stabilizing mast cells” (The Regents of the University of California, priority 1987, dated 1990)
# Experiments:
# [1] = system: human splenic lymphoblast cell line (WI-L2); experiment: Adenosine excretion by human lymphoblasts during ATP breakdown (2-deoxyglucose); format: cell-based
# Procedure: (§1) The history and properties of the cell line have been described by Hershfield et al. in Science, Vol. 197, p. 1284, 1977.
# (§2) Catabolism of cellular ATP stores was stimulated by adding either 2-deoxyglucose or a calcium ionophore. At various times, the amount of adenosine released by the cells into the supernatant, or the amount of nucleotides remaining in the cells, was determined by mixing 30 μl of chilled 4.4N perchloric acid with 300 μl of supernatants, or by adding 300 μl of chilled 0.4N perchloric acid to the cells collected as pellets and centrifuging the mixtures at 500×G for 10 minutes at 4° C. […] 1245, 1975. Following centrifugation at 1500×G for three minutes at 4° C., the aqueous phase is removed and frozen at -20° C. until assayed for adenosine, inosine, or for nucleotides. Adenosine was evaluated isocratically on a C-18 microBondapak reverse phase column equilibrated with 4 millimolar potassium phosphate, (pH 3.4):acetonitrile 60% in water (95:5 v/v) buffer. Adenosine elutes at 8-10 minutes, and its identity was confirmed by its sensitivity to adenosine deaminase and by spiking with adenosine standards. The extracted samples from the cell pellet were analyzed for nucleotides by high pressure liquid chromatography on a Whatman Partisil-10 (SAX) column equilibrated with 10 millimolar potassium phosphate, pH 3.78, and eluted with a linear gradient to a 0.25 molar potassium phosphate, 0.5 molar KCl, pH 3.45. […] Peaks were quantitated by comparison with high pressure liquid chromatography analysis of suitable standards.
# Cells were grown to about 0.5×10^6 cells/ml (mid-log phase) in FIG. 2 and to about 1.0×10^6 cells/ml (early stationary phase) in FIGS. 7-9.
# [2] = system: HPRT+ neuroblastoma cells; experiment: Adenosine excretion by ionophore-stimulated HPRT+ neuroblastoma cells; format: cell-based; conditions: for Concentration of Adenosine: HPRT+, AICA riboside 50 μM
# Procedure: as §1, §2
# (§3) To induce ATP catabolism, the growth medium was replaced by medium containing micromolar amounts of the calcium ionophore A23187 and 1.0 μM deoxycoformycin.
# [3] = system: HPRT- neuroblastoma cells; experiment: Adenosine excretion by ionophore-stimulated HPRT- neuroblastoma cells; format: cell-based; conditions: for Concentration of Adenosine: HPRT-, AICA riboside 50 μM
# Procedure: as §1, §2, §3
# adenosine = experiment: Coronary venous adenosine concentrations during coronary artery occlusion in dogs; format: in vivo, dog
# Procedure: FIG. 3. […] Coronary venous blood was collected into chilled 2N perchloric acid at various times before and after coronary artery occlusion. Supernatants from these extracts were neutralized with alamine and freon and evaluated by high performance liquid chromotography.
# Thirteen mongrel dogs were anesthetized with phenobarbital. […] C.V. Dis. 20; 55 (1977). […] Two of the surviving saline-treated animals fibrillated. […] The range was 4.4 to 100 μM.
# [4] = dog, in vivo, iv
# From the text: Thirteen mongrel dogs were anesthetized with phenobarbital. […] C.V. Dis. 20; 55 (1977).
# ischemic myocardium = experiment: Regional myocardial blood flow during coronary artery occlusion (radiolabelled microspheres); format: in vivo, dog
# From the text: FIG. 4. […] The means plus the standard deviations are graphed. […] Thirteen mongrel dogs were anesthetized with phenobarbital. […] C.V. Dis. 20; 55 (1977).
# myocardial infarct = experiment: Myocardial infarct size after tying off the left anterior descending coronary artery; format: in vivo, rat; conditions: bolus then osmotic mini-pump infusion, three weeks; p<0.05
# From the text: The animals were continuously exposed by infusion of either AICA riboside in saline or saline using osmotic mini-pumps well known to those in the art. After three weeks, the rats were sacrificed and infarct size quantitated by planimarizing stained sections of fixed hearts.
# [5] = system: Mouse bone marrow-derived mast cells; format: cell-based; conditions: 100 micromolar, A23187 at 1 μg/ml; 28.8% in its absence
# Procedure: By preventing mast cell degranulation, it is possible to prevent or control a patient's allergic response. Bone marrow obtained from Balb/C mice femurs was cultured in a 1:1 mixture of Razin media and conditioned media, produced by co-culturing splenocytes from C57B1/6J and C3H mice in the presence of Concanavalin A as described by Razin et al. in the Proc. Natl. Acad. Sci. USA 28: 2559-2561, 1981. After weekly passaging and at least 15 days in tissue culture, the resulting cells were 90% pure mast cells and 95% viable as assessed by Trypan blue exclusion. Cells exposed to ribavirin in culture were washed three times prior to use in experiments. Parallel cultures of cells grown in media alone were used as controls for pharmacologically manipulated mast cells. Cell growth was assessed by counting cells at particular time points and comparing actual numbers of ribavirin-treated cells to numbers of cells grown in media alone.
# β-hexosaminidase was chosen as a representative granule-associated, preformed mast cell mediator because it is easily quantitated, and its release nearly identically parallels that of histamine. Mouse bone marrow-derived mast cells were centrifuged at 200×g for 5 minutes, washed three times in Tyrode's buffer lacking divalent cations, sensitized for 30 minutes at 37° C. with anti-DNP ([…]) IgE (1 μg/10^6 cells) and challenged with either DNP-BSA antigen (175 ng/3×10^5 cells) or A23187 (10 μg/ml/3×10^5 cells) in 400 μl of complete Tyrode's buffer for 10 minutes at 37° C. Reaction mixtures were centrifuged at 200×g for 10 minutes, and supernatant and pellet β-hexosaminidase concentrations were assayed by the hydrolysis of p-nitrophenyl-β-D-glucosamide as described in Schwartz et al. in J. Immunol. […] Spontaneous β-hexosaminidase release was determined in unchallenged cells. The net % of β-hexosaminidase released is defined as follows: [formula] where [β-hex] is β-hexosaminidase and super. is supernatant. When exogenous adenosine was present in reaction mixtures, it was added simultaneously with the secretagogue.
# [6] = system: pentylene tetrazol-induced seizures; experiment: Pentylene tetrazol-induced seizures; format: in vivo, rat
# [7] = system: isuprel-induced arrhythmias; experiment: Isoproterenol (isuprel)-induced arrhythmias; format: in vivo, rat; conditions: 1000 mg/kg intraperitoneally
# Procedure: Five minutes later both animals were anesthetized with 330 mg/kg of chloral hydrate injected intraperitoneally. Then a single EKG lead was attached to each rat for simultaneous recording of the paired rats' electrocardiograms. To produce arrhythmia, each rat was injected subcutaneously with isuprel […].
# Beginning 30 minutes after isuprel introduction, the electrocardiograph recording paper speed was run (5 cm/sec) for 10 minutes to count the arrhythmic beats of both animals.
smiles,measurement,setting,value
"NC(=O)c1ncn([C@@H]2O[C@H](CO)[C@@H](O)[C@H]2O)c1N [AICA riboside, 5-amino-4-imidazolecarboxamide riboside]",adenosine release from lymphoblasts,"[1]; 48-hour pretreatment, 100-500 micromolar (FIG. 2)",enhances adenosine release
same,adenosine excreted,"[1]; 48-hour pretreatment, 500 micromolar AICA riboside, about 1.4 without drug",about 2.3 nanomoles of adenosine/10^6 WI-L2 cells
same,adenosine release from lymphoblasts,[1]; 18 hours preincubation before 2-deoxyglucose exposure (FIG. 7),enhanced adenosine release
same,adenosine release from lymphoblasts,"[1]; three-hour preincubation and four-hour incubation during 2-deoxyglucose treatment (FIGS. 8, 9)",increased adenosine release
same,adenosine secreted by treated cells versus control cells,"[2]; 50 μM AICA riboside, A23187 and 1.0 μM deoxycoformycin",at least twofold more adenosine than control cells
same,Concentration of Adenosine,[2]; ionophore 0 μg/ml,< 0.01 µM
same,Concentration of Adenosine,"[2]; ionophore 10 μg/ml, control 0.329",0.698 µM
same,Concentration of Adenosine,[3]; ionophore 0 μg/ml,< 0.01 µM
same,Concentration of Adenosine,"[3]; ionophore 10 μg/ml, control 0.124",0.513 µM
same,correction of the twofold lower adenosine secretion of HPRT-deficient cells,[3]; pretreatment,can be corrected by pretreatment
same,adenosine washout on reperfusion,adenosine; 1 minute after reperfusion,significant rise
same,"peak adenosine level, coronary venous blood","adenosine; 1 minute of ischemia, saline peak 0.22 +/-0.08 at 10 minutes",1.79 ± 0.35 µM
same,"adenosine level, coronary venous blood","adenosine; 60 minutes of ischemia, saline undetectable",0.18 ± 0.15 µM
same,venous adenosine prior to ischemia,adenosine; before and during infusion,< 0.01 µM
same,adenosine in blood from the right atrium (systemic blood),"adenosine; dog, in vivo",no detectable adenosine
same,concentration,[4],27.2 µM
same,regional myocardial blood flow to the ischemic myocardium versus saline,ischemic myocardium; 5 and 60 minutes of occlusion,significantly greater
same,flow to normal (non-ischemic) myocardium,"ischemic myocardium; dog, in vivo",did not alter flow to normal myocardium
same,collateral blood flow versus saline (radiolabelled microspheres),ischemic myocardium; dogs of Example IX,significantly greater
same,reduction of infarct size compared to saline-treated controls,myocardial infarct,33%
same,hexosaminidase released,[5],17.6%
same,latency to seizure,[6]; 2000 mg/kg (total dose) intraperitoneal (FIG. 12),dramatic prolongation
same,reduction of animals having seizures,"[6]; 2000 mg/kg (total dose) intraperitoneal, 60 mg/kg pentylene tetrazol",40%
same,reduction in paroxysmal ventricular contractions,[7],39%
same,ventricular fibrillation,[7],complete suppression
